Measured values as given in patent publication US9662351B2, “Plasma and brain pharmacokinetics of previously unexplored lithium salts” (University of South Florida, priority 2014, dated 2017).

Columns and labels:
[1] = rat
Procedure: Male Sprague Dawley rats weighing 200-250 grams were dosed via oral gavage with 4 meq. […] Blood and brain were collected and lithium was measured using atomic absorption spectroscopy (AAS).
Male Sprague Dawley rats weighing 200-250 grams were purchased from Harlan (Harlan Sprague Dawley Inc., Indianapolis, Ind.). […] The rats were allowed to acclimate for a period of one week before any experiments are carried out. […] They were allowed free access to food and water throughout the experiment. […] Animals in each treatment group were euthanized at 2, 24, 48, and 72 hours (n=3 per time point per lithium salt) and blood was collected by cardiac puncture and carefully perfused with a pressure controlled pump to maintain microvasculature integrity before removing brain tissue. Blood was centrifuged at 1600×g at room temperature for 10 minutes and plasma was separated. A 500 mL aliquot was diluted 10 fold in a 5% TCA and 10% isopropyl alcohol (IPA) solution, vortexed and allowed to sit for 10 minutes in order to precipitate proteins. These aliquots were centrifuged at 3000×g for 30 minutes and the supernatant was transferred to clean tubes prior to measuring lithium content using atomic absorption spectroscopy (AAS). Brains were rinsed with PBS, weighed, and an equal volume of concentrated HNO3 was added. The brains were heated in this nitric acid solution for 1 hour, allowed to cool to room temperature, then centrifuged at 3000×g for 1 hour. The supernatant was removed and diluted 10 fold in 10% IPA prior to measuring lithium content using AAS (Shimadzu AA-6200). Peak height measurements were carried out referring to values obtained for standards of known concentrations. […] Two tailed t-tests were used to assess the statistical significance at each time point for the pharmacokinetic curves. The criterion for rejection of the null hypothesis was P<0.05.

[2] = rat, same protocol; previously reported [7]; peaks rapidly; cited from earlier work

| SMILES | AUC(0-72) ([1]; brain lithium, 0-72 h, oral gavage 4 meq. kg^−1 elemental lithium, mean±SEM) [µg/g] | brain lithium exposure compared with other lithium salts (e.g. lithium lactate) ([1]; brain, oral) | plasma lithium exposure compared with other lithium salts (e.g. lithium lactate) ([1]; plasma, oral) | time to elimination of lithium [2] [h] |
| --- | --- | --- | --- | --- |
| O=C([O-])c1ccccc1O.[Li+] [Lithium Salicylate, Lithium salicylate] | 153.1 ± 7.66 | better brain exposure | comparatively lower plasma lithium exposure |  |
| O=C([O-])[O-].[Li+].[Li+] [lithium carbonate] |  |  |  | ≤ 48 |
